# Assay results published in patent publication US20250090435A1, “PRESERVATIVES FOR COSMETIC AND PHARMACEUTICAL COMPOSITIONS” (priority 2021, published 2025).
# Legend:
# [1] = Thickening behavior study: viscosity of surfactant systems; type: physicochemical; settings: for Viscosity (change after each sequential addition) / Change in viscosity (symbol under Viscosity) / Viscosity (LV3/12 rpm): pH 5.5; for Change in viscosity (symbol under Viscosity) / Viscosity (LV3/12 rpm): 14% AM sodium coco sulfate/decyl glucoside system, additive(s) at 1% each; for Viscosity: 12% AM, NaCl 1, pH 5.5, additive(s) at 1% w/w each
# Method: Four formulations are shown in the four rightmost columns of Table 14 with ingredients indicated as a percentage by weight. The formulations differ in percentages of sodium chloride, 3-(heptyloxy)propane-1,2-diol, and 3-[(n-octyl)oxy]-1,2-propanediol.
# A thickening behavior study was also performed in another basic surfactant system: Anionic/Non Ionic (APG—alkyl polyglucoside). Each column corresponds to a particular formulation with ingredients listed as a percentage by weight. The remainder was water, represented by Qs. % AM indicates % of active matter (e.g. % of dry surfactant).
# A further thickening behavior study was performed in a different basic surfactant system: anionic/amphoteric (CAPB—Cocamidopropyl betaine). Each column corresponds to a particular formulation with ingredients listed as a percentage by weight. The remainder was water, represented by Qs. % AM indicates % of active matter (e.g. % of dry surfactant).
# A further thickening behavior study was performed to compare sulfated surfactants and sulfate free surfactants. Each column corresponds to a particular formulation with ingredients listed as a percentage by weight. The remainder was water, represented by Qs. % AM indicates % of active matter (e.g. % of dry surfactant). Sodium chloride, 3-(heptyloxy)propane-1,2-diol, and 3-[(n-octyl)oxy]-1,2-propanediol were added sequentially with the change in viscosity measured after each addition and noted in Table 17 below.
# A further thickening behavior study was performed to determine viscosity differences with and without salt (e.g. sodium chloride). Each column corresponds to a particular formulation with ingredients listed as a percentage by weight. The remainder was water, represented by Qs. % AM indicates % of active matter (e.g. % of dry surfactant).
# [2] = Solubility in aqueous systems; type: physicochemical; settings: compared to 3-(heptyloxy)propane-1,2-diol
# microbial growth = assay: BIOLUMIX assay to screen for preventing microbial growth; type: cell-based; settings: 1% by weight in cleansing wipe, emulsion wipe, cream, shampoo, roll-on deodorant
# Text: Efficacy of the compositions in preventing microbial growth were screened with a BIOLUMIX assay. The BIOLUMIX assay produces a color change when carbon dioxide, indicative of microbial contamination, is detected in a sample. Non-preserved formulations without 3-(heptyloxy)propane-1,2-diol were used as negative controls, and formulations were used at particular percentages of 3-(heptyloxy)propane-1,2-diol by weight. Passing criteria is meeting criteria A in Table 5.
# [3] = test system: Staphylococcus epidermidis - code souchier C′; assay: Roll-on deodorant challenge test (ISO 11930, odor-causing bacteria); type: cell-based; settings: addition of 1% in natural roll-on deodorant
# Method: The roll-on deodorant challenge tests shown below were conducted in accordance with ISO 11930 except that formulations were tested with bacteria Corynebacterium xerosis—code souchier M′ and Staphylococcus epidermidis—code souchier C′, which are two of the major odor-causing bacteria found in skin flora. The roll-on deodorant formulations used in the challenge tests are described in Tables 3 and 4 above. A non-preserved formulation without 3-(heptyloxy)propane-1,2-diol was used as a negative control, and the high concentration formulation with 1% 3-(heptyloxy)propane-1,2-diol by weight was tested.
# [4] = Skin irritancy and skin sensitization
# [5] = Sulfate free: Na Cocoyl Glutamate 8/Decyl Glucoside 4, 12% AM, added sequentially NaCl 2, 3-(heptyloxy)propane-1,2-diol 1, 3-[(n-octyl)oxy]-1,2-propanediol 1
# [6] = Sulfate free: Na Cocoyl Glycinate 8/Decyl Glucoside 4, 12% AM, added sequentially NaCl 2, 3-(heptyloxy)propane-1,2-diol 1, 3-[(n-octyl)oxy]-1,2-propanediol 1
# [7] = Sulfate free: Na Lauroyl Sarcosinate 8/Decyl Glucoside 4, 12% AM, added sequentially NaCl 2, 3-(heptyloxy)propane-1,2-diol 1, 3-[(n-octyl)oxy]-1,2-propanediol 1
# [8] = Sulfate free: Na Lauryl Glucose Carboxylate 8/Decyl Glucoside 4, 12% AM, added sequentially NaCl 2, 3-(heptyloxy)propane-1,2-diol 1, 3-[(n-octyl)oxy]-1,2-propanediol 1
# [9] = Sulfate free: Na Lauryl Sulfoacetate 8/Decyl Glucoside 4, 12% AM, added sequentially NaCl 2, 3-(heptyloxy)propane-1,2-diol 1, 3-[(n-octyl)oxy]-1,2-propanediol 1
# [10] = Sulfated: Ammonium Lauryl Sulfate 8/Decyl Glucoside 4, 12% AM, added sequentially NaCl 1, 3-(heptyloxy)propane-1,2-diol 1, 3-[(n-octyl)oxy]-1,2-propanediol 1
# [11] = Sulfated: Na Coco Sulfate 8/Decyl Glucoside 4, 12% AM, added sequentially NaCl 1, 3-(heptyloxy)propane-1,2-diol 1, 3-[(n-octyl)oxy]-1,2-propanediol 1
# [12] = Sulfated: Na Lauryl Ether Sulfate 8/Decyl Glucoside 4, 12% AM, added sequentially NaCl 1, 3-(heptyloxy)propane-1,2-diol 1, 3-[(n-octyl)oxy]-1,2-propanediol 1
# [13] = Sulfated: Na Lauryl Sulfate 8/Decyl Glucoside 4, 12% AM, added sequentially NaCl 1, 3-(heptyloxy)propane-1,2-diol 1, 3-[(n-octyl)oxy]-1,2-propanediol 1
# [14] = Ammonium Lauryl Sulfate (ALS) 8/APG 4 system
# [15] = Ammonium Lauryl Sulfate (ALS) 10/CAPB 2 system
# [16] = Na Cocoyl Sulfate (SCS) 8/APG 4 system
# [17] = Na Lauryl Ether Sulfate (SLES) 8/APG 4 system
# [18] = Na Lauryl Ether Sulfate (SLES) 10/CAPB 2 system
SMILES,"Viscosity (change after each sequential addition) [1, 5]","Viscosity (change after each sequential addition) [1, 6]","Viscosity (change after each sequential addition) [1, 7]","Viscosity (change after each sequential addition) [1, 8]","Viscosity (change after each sequential addition) [1, 9]","Viscosity (change after each sequential addition) [1, 10]","Viscosity (change after each sequential addition) [1, 11]","Viscosity (change after each sequential addition) [1, 12]","Viscosity (change after each sequential addition) [1, 13]",Change in viscosity (symbol under Viscosity) ([1]; With 1% NaCl),Viscosity (LV3/12 rpm) ([1]; With 1% NaCl) [cps],"Viscosity [1, 14] [cps]","Viscosity [1, 15] [cps]","Viscosity [1, 16] [cps]","Viscosity [1, 17] [cps]","Viscosity [1, 18] [cps]",further results
[Cl-].[Na+] [NaCl],≈,↑,≈,≈,≈,↑,↑,↑,↑,–,–,–,–,–,–,–,–
[Cl-].[Na+] [Sodium Chloride],–,–,–,–,–,–,–,–,–,↑,280,–,–,–,–,–,–
"CCCCCCCCOCC(O)CO (stereo not drawn) [3-[(n-octyl)oxy]-1,2-propanediol]",≈,≈,≈,≈,≈,↑++,↑++,↑++,↑++,–,–,550,3250,370,50,700,solubility in aqueous systems [2]: lower solubility in aqueous systems
"CCCCCCCOCC(O)CO (stereo not drawn) [3-(heptyloxy)propane-1,2-diol]",≈,≈,≈,≈,≈,↑+,↑+,↑+,↑,↑+,1600,260,2500,130,50,200,"microbial growth in products (microbial growth): successfully blocks microbial growth; speed of logarithmic reduction of bacteria [3]: increases logarithmic reduction of bacteria such as Staphylococcus faster; Change in viscosity (symbol under Viscosity) ([1]; Without Salt): ≈; Viscosity (LV3/12 rpm) ([1]; Without Salt, base without additives 70 cps): 80 cps; skin irritancy [4]: reduced/no skin irritancy; skin sensitization [4]: non-skin sensitizer"
